Measurements: ChEMBL document CHEMBL4420076, “Amylin and calcitonin receptor agonist” (2017)
Numbered stars: 1 amine (or outer) side, 2 acyl side, 3 side chain; on linkers, the order of the positions; unused ones are H or OH. Peptide text beside a SMILES is read from it. * marks the point of attachment. C20 diacid = O=C(O)CCCCCCCCCCCCCCCCCCC(=O)*; γGlu = O=C(O)[C@H](CCC(=O)[*:2])N[*:1]

What was measured:
[1] = target: T1, Amylin receptor AMY3; CALCR/RAMP3 (Homo sapiens, UniProt O60896+P30988); test: Agonist activity at human amylin receptor expressed in BHK570 cells co-expressing RAMP3 assessed as increase in intracellular cAMP concentration incubated for 3 hrs in absence of albumin by CRE luciferase reporter gene assay; type: functional, cell-based
T1 sequence (P30988 whole entry): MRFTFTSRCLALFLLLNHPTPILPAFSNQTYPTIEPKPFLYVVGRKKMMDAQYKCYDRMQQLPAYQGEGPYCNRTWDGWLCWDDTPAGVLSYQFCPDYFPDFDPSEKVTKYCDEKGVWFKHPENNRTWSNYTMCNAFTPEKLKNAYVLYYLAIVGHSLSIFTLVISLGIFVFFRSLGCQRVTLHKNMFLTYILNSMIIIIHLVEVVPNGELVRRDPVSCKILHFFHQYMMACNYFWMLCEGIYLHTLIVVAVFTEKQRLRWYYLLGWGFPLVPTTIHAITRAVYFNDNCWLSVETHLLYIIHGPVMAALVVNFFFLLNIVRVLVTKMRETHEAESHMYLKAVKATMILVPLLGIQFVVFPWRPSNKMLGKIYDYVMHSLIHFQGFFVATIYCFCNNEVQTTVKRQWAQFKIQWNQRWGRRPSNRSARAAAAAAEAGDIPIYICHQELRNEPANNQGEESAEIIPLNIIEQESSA
T1 sequence (O60896 whole entry): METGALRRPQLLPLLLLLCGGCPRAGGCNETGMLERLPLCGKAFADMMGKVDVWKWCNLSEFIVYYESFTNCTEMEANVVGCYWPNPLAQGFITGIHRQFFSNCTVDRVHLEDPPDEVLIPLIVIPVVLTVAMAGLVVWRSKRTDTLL

Calcitonin receptor [2] = target: T2, Calcitonin receptor (Homo sapiens, UniProt P30988); test: Agonist activity at human calcitonin receptor expressed in BHK570 cells assessed as increase in intracellular cAMP concentration incubated for 3 hrs in absence of albumin by CRE luciferase reporter gene assay; type: functional, cell-based
T2 sequence (P30988 whole entry): T1 sequence (P30988 whole entry)

Calcitonin receptor [3] = target: T2, Calcitonin receptor; test: Agonist activity at human calcitonin receptor expressed in BHK570 cells assessed as increase in intracellular cAMP concentration incubated for 3 hrs in presence of 10% FBS by CRE luciferase reporter gene assay; type: functional, cell-based
[4] = Stability in pH 7.5 buffer assessed as lag time for fibril formation at 1 uM by Thioflavin T based fluorescence assay; type: physicochemical; settings: pH 7.5, 1 µM
[5] = Stability in pH 7.5 buffer assessed as compound recovery at 1 uM by Thioflavin T based fluorescence assay; type: physicochemical; settings: read-out: Drug recovery
[6] = Solubility in 100 mM glycylglycine buffer at pH 3.0 incubated for 18 hrs by UPLC analysis; type: physicochemical
[7] = Solubility in 100 mM glycylglycine buffer at pH 4.0 incubated for 18 hrs by UPLC analysis; type: physicochemical
[8] = Solubility in 100 mM bistrispropane buffer at pH 6.0 incubated for 18 hrs by UPLC analysis; type: physicochemical
[9] = Solubility in 100 mM glycylglycine buffer at pH 5.0 incubated for 18 hrs by UPLC analysis; type: physicochemical
[10] = Solubility in 100 mM bistrispropane buffer at pH 6.5 incubated for 18 hrs by UPLC analysis; type: physicochemical
[11] = Solubility in 100 mM bistrispropane buffer at pH 7.0 incubated for 18 hrs by UPLC analysis; type: physicochemical
[12] = Solubility in 100 mM bistrispropane buffer at pH 7.5 incubated for 18 hrs by UPLC analysis; type: physicochemical
[13] = Solubility in 100 mM bistrispropane buffer at pH 8.0 incubated for 18 hrs by UPLC analysis; type: physicochemical
[14] = target: T1, Amylin receptor AMY3; CALCR/RAMP3; test: Displacement of [125I]-labeled rat amylin from human amylin receptor expressed in BHK570 cell membranes co-expressing RAMP3 incubated for 120 mins by scintillation proximity assay
Calcitonin receptor [15] = target: T2, Calcitonin receptor; test: Displacement of [125I]-labeled human calcitonin from human calcitonin receptor expressed in BHK tkts13 cell membranes incubated for 1 hr by scintillation proximity assay
[16] = target: T3, Amylin receptor AMY3; CALCR/RAMP3 (Rattus norvegicus, UniProt P32214+Q9JJ73); test: Displacement of [125I]-labeled rat amylin from rat amylin receptor expressed in BHK tkts13 cell membranes co-expressing RAMP3 incubated for 120 mins by scintillation proximity assay
T3 sequence (P32214 whole entry): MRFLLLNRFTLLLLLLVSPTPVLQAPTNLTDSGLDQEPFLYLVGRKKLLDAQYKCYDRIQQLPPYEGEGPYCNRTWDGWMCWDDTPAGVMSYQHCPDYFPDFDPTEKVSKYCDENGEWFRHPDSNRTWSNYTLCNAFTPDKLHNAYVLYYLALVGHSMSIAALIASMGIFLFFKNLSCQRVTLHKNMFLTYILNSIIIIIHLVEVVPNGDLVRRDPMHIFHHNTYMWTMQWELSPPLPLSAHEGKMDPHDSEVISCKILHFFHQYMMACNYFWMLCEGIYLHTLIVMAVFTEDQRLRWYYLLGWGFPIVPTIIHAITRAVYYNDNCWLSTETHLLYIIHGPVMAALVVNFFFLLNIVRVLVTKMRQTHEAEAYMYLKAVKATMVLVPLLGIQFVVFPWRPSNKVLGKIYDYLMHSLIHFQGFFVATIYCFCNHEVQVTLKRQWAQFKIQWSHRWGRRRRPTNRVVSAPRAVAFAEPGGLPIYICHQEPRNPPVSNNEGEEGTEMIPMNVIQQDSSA
T3 sequence (Q9JJ73 whole entry): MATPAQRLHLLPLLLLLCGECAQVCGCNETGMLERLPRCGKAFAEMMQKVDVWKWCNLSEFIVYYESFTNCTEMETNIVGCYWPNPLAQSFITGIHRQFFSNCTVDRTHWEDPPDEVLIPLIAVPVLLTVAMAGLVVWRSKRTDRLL

[17] = target: T1, Amylin receptor AMY3; CALCR/RAMP3; test: Displacement of [125I]-labeled rat amylin from human amylin receptor expressed in BHK tkts13 whole cells co-expressing RAMP3 incubated for 60 mins by scintillation proximity assay; type: cell-based
Rattus norvegicus [18] = test: Reduction in food intake in Sprague-Dawley rat at 3 nmol/kg measured 0 to 24 hrs post dose relative to control; type: functional; parameters: scale not given: the % may be the effect or the level left
Rattus norvegicus [19] = test: Reduction in food intake in Sprague-Dawley rat at 3 nmol/kg measured 24 to 48 hrs post dose relative to control; type: functional; parameters: scale not given: the % may be the effect or the level left

| SMILES | EC50 [1] | EC50 (Calcitonin receptor [2]) | EC50 (Calcitonin receptor [3]) | Time [4] | remaining at 1 µM [5] | solubility at 18 h [6] | solubility at 18 h [7] | solubility at 18 h [8] | solubility at 18 h [9] | solubility at 18 h [10] | solubility at 18 h [11] | solubility at 18 h [12] | solubility at 18 h [13] | IC50 [14] | IC50 (Calcitonin receptor [15]) | IC50 [16] | IC50 [17] | Activity (Rattus norvegicus [18]) | Activity (Rattus norvegicus [19]) |
| --- | --- | --- | --- | --- | --- | --- | --- | --- | --- | --- | --- | --- | --- | --- | --- | --- | --- | --- | --- |
| CC(C)C[C@H](NC(=O)[C@H](C)NC(=O)[C@H](C)NC(=O)[C@@H](NC(=O)[C@H](CO)NC(=O)[C@H](CC(C)C)NC(=O)[C@H](CCC(=O)O)NC(=O)[C@H](CO)NC(=O)[C@H](C)NC(=O)CC[C@H](NC(=O)CCCCCCCCCCCCCCCCCCC(=O)O)C(=O)O)[C@@H](C)O)C(=O)NCC(=O)N[C@@H](CCCNC(=N)N)C(=O)N[C@@H](CC(C)C)C(=O)N[C@@H](CO)C(=O)N[C@@H](C)C(=O)N[C@@H](CCC(=O)O)C(=O)N[C@@H](CC(C)C)C(=O)N[C@@H](Cc1cnc[nH]1)C(=O)N[C@@H](CCC(=O)O)C(=O)N[C@@H](CC(C)C)C(=O)N[C@@H](C)C(=O)N[C@H](C(=O)N[C@@H](CC(C)C)C(=O)N1CCC[C@H]1C(=O)N[C@@H](CCCNC(=N)N)C(=O)N[C@H](C(=O)N[C@@H](CCC(=O)O)C(=O)N[C@H](C(=O)NCC(=O)N[C@@H](CO)C(=O)NCC(=O)N[C@@H](CO)C(=O)N[C@@H](Cc1cnc[nH]1)C(N)=O)[C@@H](C)O)[C@@H](C)O)[C@@H](C)O ({C20 diacid-γGlu}-ASELSTAALGRLSAELHELATLPRTETGSGSH-NH2) | 53 pM | 48 pM | 72 pM | > 45 h | 100% | ≥ 200 µM | ≥ 200 µM | ≥ 200 µM | ≥ 200 µM | ≥ 200 µM | ≥ 200 µM | ≥ 200 µM | ≥ 200 µM | 57 pM | 34 pM | 46 pM | 1070 pM |  |  |
| CC(C)C[C@H](NC(=O)CNC(=O)[C@H](CO)NC(=O)[C@H](C)NC(=O)CC[C@H](NC(=O)CCCCCCCCCCCCCCCCCCC(=O)O)C(=O)O)C(=O)N[C@@H](CO)C(=O)N[C@H](C(=O)N[C@@H](C)C(=O)N[C@@H](C)C(=O)N[C@@H](CC(C)C)C(=O)NCC(=O)N[C@@H](CCCNC(=N)N)C(=O)N[C@@H](CC(C)C)C(=O)N[C@@H](CO)C(=O)N[C@@H](CCC(N)=O)C(=O)N[C@@H](CCC(=O)O)C(=O)N[C@@H](CC(C)C)C(=O)N[C@@H](Cc1cnc[nH]1)C(=O)N[C@@H](CCC(=O)O)C(=O)N[C@@H](CC(C)C)C(=O)N[C@@H](CCC(N)=O)C(=O)N[C@H](C(=O)N[C@@H](Cc1ccc(O)cc1)C(=O)N1CCC[C@H]1C(=O)N[C@@H](CCCNC(=N)N)C(=O)N[C@H](C(=O)N[C@@H](CCC(=O)O)C(=O)N[C@H](C(=O)NCC(=O)N[C@@H](CO)C(=O)N[C@@H](CCC(N)=O)C(=O)N[C@H](C(=O)N[C@@H](Cc1ccc(O)cc1)C(N)=O)[C@@H](C)O)[C@@H](C)O)[C@@H](C)O)[C@@H](C)O)[C@@H](C)O ({C20 diacid-γGlu}-ASGLSTAALGRLSQELHELQTYPRTETGSQTY-NH2) | 37 pM | 25 pM | 108 pM | > 45 h | 100% | ≥ 200 µM | ≥ 200 µM | ≥ 200 µM |  | ≥ 200 µM | ≥ 200 µM | ≥ 200 µM | ≥ 200 µM | 131 pM | 51 pM | 78 pM |  | 40% | 42% |
